In brackets after ≈: the same amount, converted by molar mass. Activity calls are given as the source filed them. The calls are words filed in the database; no cut-off is given here.
How the values were obtained:
CHO [1] = assay: (§1) Cytotoxicity against CHO cells assessed as inhibition of cell growth at 10 uM incubated overnight by MTS assay reltive to control; format: toxicity, cell-based, Cricetulus griseus; details: chinese hamster, cho, 10 µM
[2] = as §1; format: toxicity, cell-based, Cricetulus griseus; details: chinese hamster, CHO cells, read-out: Activity
[3] = molecular target: T1, Leukotriene B4 receptor 2 (Mus musculus, UniProt Q9JJL9); assay: Agonist activity at mouse BLT2 expressed in CHO cells assessed as induction of calcium accumulation; format: functional, cell-based
T1 sequence (Q9JJL9 whole entry): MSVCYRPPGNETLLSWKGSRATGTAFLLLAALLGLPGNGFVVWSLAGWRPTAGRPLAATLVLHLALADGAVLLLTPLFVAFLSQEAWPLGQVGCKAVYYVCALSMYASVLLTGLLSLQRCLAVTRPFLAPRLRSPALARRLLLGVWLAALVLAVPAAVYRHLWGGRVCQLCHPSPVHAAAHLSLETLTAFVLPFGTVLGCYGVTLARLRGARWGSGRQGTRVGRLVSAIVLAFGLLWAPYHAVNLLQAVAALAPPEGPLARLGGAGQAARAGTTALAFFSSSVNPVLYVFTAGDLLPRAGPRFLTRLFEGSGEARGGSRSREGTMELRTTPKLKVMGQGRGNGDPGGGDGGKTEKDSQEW

[4] = molecular target: T2, Leukotriene B4 receptor 2 (Mus musculus) (UniProt Q9JJL9); assay: Displacement of 3[H]LTB4 from mouse BLT2 by competitive binding assay; details: filed as agonist
T2 sequence (whole entry): T1 sequence (Q9JJL9 whole entry)

Mus musculus [5] = assay: Anti-asthmatic activity against OVA/LPS induced BALB/c mouse model assessed as decrease in bronchoalveolar lavage fluid (BALF) IL-4 level at 10 mg/kg, ip by ELISA method relative to control; format: functional; design: scale not given: the % may be the effect or the level left
Mus musculus [6] = assay: Anti-asthmatic activity against OVA/LPS induced BALB/c mouse model assessed as reduction in bronchial hyper-response at 10 mg/kg, ip for one hr before every challenge on day 14 to 16 and measured after 17 days relative to control; format: functional; design: scale not given: the % may be the effect or the level left; details: time 17 day
Mus musculus [7] = assay: Anti-asthmatic activity against OVA/LPS induced BALB/c mouse model assessed as decrease in bronchoalveolar lavage fluid (BALF) IL-13 level at 10 mg/kg, ip by ELISA method relative to control; format: functional; design: scale not given: the % may be the effect or the level left
Mus musculus [8] = assay: Anti-asthmatic activity against OVA/LPS induced BALB/c mouse model assessed as decrease in bronchoalveolar lavage fluid (BALF) IL-5 level at 10 mg/kg, ip by ELISA method relative to control; format: functional; design: scale not given: the % may be the effect or the level left
[9] = Apparent volume of distribution in rat at 2 mg/kg, iv; format: ADME, organism-based; details: in vivo, read-out: Vd(app)
[10] = Metabolic stability in human liver microsomes assessed as parent compound remaining measured after 30 mins in absence of NADPH; format: ADME, Microsome; details: read-out: Stability
[11] = Oral bioavailability in rat at 20 mg/kg administered as solution; format: ADME, organism-based; details: in vivo
[12] = Solubility of the compound in deionized water; format: physicochemical; details: buffer
[13] = Tmax in rat at 20 mg/kg, po administered as suspension; format: ADME, organism-based; details: in vivo
[14] = Metabolic stability in human liver microsomes assessed as parent compound remaining measured after 30 mins in presence of NADPH; format: ADME, Microsome; details: read-out: Stability
[15] = Tmax in rat at 20 mg/kg, po administered as solution; format: ADME, organism-based; details: in vivo
Mus musculus [16] = assay: Anti-asthmatic activity against OVA/LPS induced BALB/c mouse model assessed as decrease in bronchoalveolar lavage fluid (BALF) IL-13 level at 20 mg/kg, ip by ELISA method relative to control; format: functional; design: scale not given: the % may be the effect or the level left
[17] = Metabolic stability in mouse liver microsomes assessed as parent compound remaining measured after 30 mins in absence of NADPH; format: ADME, Microsome; details: read-out: Stability
Mus musculus [18] = assay: Anti-asthmatic activity against OVA/LPS induced BALB/c mouse model assessed as decrease in bronchoalveolar lavage fluid (BALF) IL-5 level at 20 mg/kg, ip by ELISA method relative to control; format: functional; design: scale not given: the % may be the effect or the level left
CHO [19] = assay: Inhibition of Akt phosphorylation (unknown origin) expressed in CHO cells harbouring BLT2 by Western blot analysis; format: cell-based; details: Homo sapiens
[20] = Metabolic stability in mouse liver microsomes assessed as parent compound remaining measured after 30 mins in presence of […]; format: ADME, Microsome; details: read-out: Stability
[21] = Half life in rat at 2 mg/kg, iv; format: ADME, organism-based; details: in vivo
[22] = AUC infinity in rat at 20 mg/kg, po administered as solution; format: ADME, organism-based; details: in vivo
[23] = Cmax in rat at 20 mg/kg, po administered as suspension; format: ADME, organism-based; details: in vivo
[24] = molecular target: T3, Leukotriene B4 receptor 2 (Homo sapiens, UniProt Q9NPC1); assay: Displacement of 3H-LTB4 from human BLT2 expressed in CHO cell membrane assessed as inhibition constant incubated for 60 mins by liquid scintillation counter analysis
T3 sequence (Q9NPC1 whole entry): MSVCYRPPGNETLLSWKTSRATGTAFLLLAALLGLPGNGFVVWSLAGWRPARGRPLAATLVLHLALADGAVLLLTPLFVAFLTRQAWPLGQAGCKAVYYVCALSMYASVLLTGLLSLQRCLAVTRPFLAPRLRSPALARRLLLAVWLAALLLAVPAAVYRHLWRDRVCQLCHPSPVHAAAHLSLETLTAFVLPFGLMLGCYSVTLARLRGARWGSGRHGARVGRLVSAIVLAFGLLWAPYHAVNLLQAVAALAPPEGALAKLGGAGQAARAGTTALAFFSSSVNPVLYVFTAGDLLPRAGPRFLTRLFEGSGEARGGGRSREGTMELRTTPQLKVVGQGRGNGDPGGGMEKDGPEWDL

[25] = Clearance in rat at 2 mg/kg, iv; format: ADME, organism-based; details: in vivo
[26] = AUC infinity in rat at 2 mg/kg, iv; format: ADME, organism-based; details: in vivo
[27] = Metabolic stability in mouse liver microsomes assessed as parent compound remaining measured after 30 mins in absence of […]; format: ADME, Microsome; details: read-out: Stability
Mus musculus [28] = assay: Anti-asthmatic activity against OVA/LPS induced BALB/c mouse model assessed as decrease in bronchoalveolar lavage fluid (BALF) IL-4 level at 20 mg/kg, ip by ELISA method relative to control; format: functional; design: scale not given: the % may be the effect or the level left
[29] = Metabolic stability in human liver microsomes assessed as parent compound remaining measured after 30 mins in absence of […]; format: ADME, Microsome; details: read-out: Stability
[30] = Metabolic stability in mouse liver microsomes assessed as parent compound remaining measured after 30 mins in presence of NADPH; format: ADME, Microsome; details: read-out: Stability
[31] = Metabolic stability in human liver microsomes assessed as parent compound remaining measured after 30 mins in presence of […]; format: ADME, Microsome; details: read-out: Stability
[32] = AUC infinity in rat at 20 mg/kg, po administered as suspension; format: ADME, organism-based; details: in vivo
[33] = molecular target: Leukotriene B4 receptor 1 (Homo sapiens) (UniProt Q15722); assay: Antagonist activity at human BLT1 expressed in CHO cells assessed as inhibition of LTB4 induced cell migration at 10 uM measured after 3 hrs by chemotaxis assay; format: cell-based
[34] = Oral bioavailability in rat at 20 mg/kg administered as suspension; format: ADME, organism-based; details: in vivo
[35] = Cmax in rat at 20 mg/kg, po administered as solution; format: ADME, organism-based; details: in vivo
CHO [36] = assay: Inhibition of Akt phosphorylation (unknown origin) expressed in CHO cells harbouring BLT1 by Western blot analysis; format: cell-based; details: Homo sapiens
[37] = molecular target: Leukotriene B4 receptor 1 (Homo sapiens) (UniProt Q15722); assay: Antagonist activity at human BLT1 expressed in CHO cells assessed as inhibition of LTB4 induced cell migration at 10 uM measured after 3 hrs by chemotaxis assay relative to control; format: cell-based; design: scale not given: the % may be the effect or the level left; details: filed as antagonist

Leukotriene B4 receptor 1 (Homo sapiens), sequence (Q15722 whole entry): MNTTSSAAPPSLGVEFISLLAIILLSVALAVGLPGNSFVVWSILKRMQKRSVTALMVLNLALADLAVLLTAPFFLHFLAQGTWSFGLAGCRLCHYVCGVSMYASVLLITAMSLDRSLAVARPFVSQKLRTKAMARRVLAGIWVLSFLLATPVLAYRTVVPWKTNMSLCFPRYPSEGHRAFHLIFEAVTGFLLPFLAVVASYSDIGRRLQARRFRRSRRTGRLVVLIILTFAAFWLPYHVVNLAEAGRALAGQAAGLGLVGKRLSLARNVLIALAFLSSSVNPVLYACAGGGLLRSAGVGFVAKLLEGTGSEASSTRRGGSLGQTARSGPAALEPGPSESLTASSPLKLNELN

CCCCC(=O)N(Cc1ccc(-c2ccc(C(=O)O)cc2)cc1)c1ccccc1
Activity (CHO [1]): Non-Toxic

CCCCC(=O)N(Cc1ccc(-c2ccc(C(=O)N3CCN(C)CC3)cc2)cc1)c1ccccc1
Activity (CHO [1]): Non-Toxic

CCCCC(=O)N(Cc1ccc(-c2ccc(C(=O)NCC(=O)O)cc2)cc1)c1ccccc1
Activity (CHO [1]): Non-Toxic

CCCCC(=O)N(Cc1ccc(-c2ccc(C(=O)O)cc2)cc1)c1ccccc1F
Activity (CHO [1]): Non-Toxic

CCCCC(=O)N(Cc1ccc(-c2ccc(OCC(=O)O)cc2)cc1)c1ccccc1
Activity (CHO [1]): Non-Toxic

CCCCC(=O)N(Cc1ccc(-c2ccc(O/C=C/C(=O)O)cc2)cc1)c1cccc(F)c1
Activity (CHO [1]): Non-Toxic

CCCCC(=O)N(Cc1ccc(-c2ccc(C(=O)N3CCN(C(C)C)CC3)cc2)cc1)c1ccccc1
Activity (CHO [1]): Non-Toxic

CCCCC(=O)N(Cc1ccc(-c2ccc(C(N)=O)cc2)cc1)c1ccccc1
Activity (CHO [1]): Non-Toxic

CCCCC(=O)N(Cc1ccc(-c2ccc(O)cc2)cc1)c1cccc(C(F)(F)F)c1
inhibition at 10 µM [2]: 5%

CCCCC(=O)N(Cc1ccc(-c2ccc(O)nc2)cc1)c1cccc(F)c1
Activity (CHO [1]): Non-Toxic

CCCCC(=O)N(Cc1ccc(-c2ccc(OC)cc2)cc1)c1cccc(C(F)(F)F)c1
Activity (CHO [1]): Non-Toxic

CCCCC(=O)N(Cc1ccc(-c2ccccc2CCC(=O)O)cc1)c1ccccc1
inhibition at 10 µM [2]: 4%

CCCCC(=O)N(Cc1ccc(-c2ccc(OC)cc2)cc1)c1cccc(F)c1
inhibition at 10 µM [2]: 7%

CCCCC(=O)N(Cc1ccc(-c2ccc(OCC(=O)O)cc2)cc1)c1cccc(C(F)(F)F)c1
Activity (CHO [1]): Non-Toxic

CCCCC(=O)N(Cc1ccc(-c2ccccc2C(=O)O)cc1)c1ccccc1
EC50 [3]: 20 nM | Activity [4]: 5 nM

CCc1cc(C(C)=O)c(O)cc1OCCCCCC(C)(C)c1nn[nH]n1 [LY-255283]
Activity (Mus musculus [5]): 38% | Activity (Mus musculus [6]): 69% | Activity (Mus musculus [7]): 38% | Activity (Mus musculus [8]): 48%

CCCCC(=O)N(Cc1ccc(-c2ccc(OCC(=O)O)cc2)cc1)c1cccc(F)c1
Vd [9]: 4.2 L/kg | remaining at 0.5 h [10]: 98.1% | bioavailability [11]: 35% | solubility [12]: 0.033 µg/mL (≈ 0.0758 µM) | Tmax [13]: 0.9 h | remaining at 0.5 h [14]: 74.5% | Tmax [15]: 1 h | Activity (Mus musculus [16]): 38% | remaining at 0.5 h [17]: 88.3% | Activity (Mus musculus [18]): 46% | inhibition (CHO [19]): Active | remaining at 0.5 h [20]: 91.7% | half-life [21]: 1.4 h | Activity (Mus musculus [5]): 25% | Activity (Mus musculus [6]): 59% | AUC(0-inf) [22]: 2200 ng·h/mL | Cmax [23]: 700 ng/mL | Ki [24]: 132 nM | clearance [25]: 54 mL/min/kg | AUC(0-inf) [26]: 600 ng·h/mL | Activity (Mus musculus [7]): 19% | Activity (CHO [1]): Non-Toxic | remaining at 0.5 h [27]: 92.9% | Activity (Mus musculus [8]): 33% | Activity (Mus musculus [28]): 35% | remaining at 0.5 h [29]: 98.8% | remaining at 0.5 h [30]: 67.8% | remaining at 0.5 h [31]: 94% | AUC(0-inf) [32]: 1500 ng·h/mL | Activity [33]: inactive | bioavailability [34]: 24% | Cmax [35]: 1100 ng/mL

CCCCC(=O)N(Cc1ccc(-c2ccc(O)cc2)nc1)c1cccc(F)c1
Activity (CHO [1]): Non-Toxic

CCCCC(=O)N(Cc1ccc(-c2ccc(N)cc2)cc1)c1ccccc1
Activity (CHO [1]): Non-Toxic

CCCCC(=O)N(Cc1ccc(-c2ccc(O)cc2)cc1)c1ccccc1
Activity (CHO [1]): Non-Toxic

CCCCC(=O)N(Cc1ccc(-c2ccc(C(=O)NCC)cc2)cc1)c1ccccc1
Activity (CHO [1]): Non-Toxic

CCCCC(=O)N(Cc1ccc(-c2cccc(C(=O)O)c2)cc1)c1ccccc1
Activity (CHO [1]): Non-Toxic

CCCCC(=O)N(Cc1ccc(-c2ccc(O)cc2)cc1)c1cccc(F)c1
remaining at 0.5 h [10]: 96.8% | solubility [12]: < 0.02 µg/mL | remaining at 0.5 h [14]: 33.5% | remaining at 0.5 h [17]: 84.2% | inhibition (CHO [36]): Active | inhibition (CHO [19]): Active | remaining at 0.5 h [20]: 70.1% | Activity (CHO [1]): Non-Toxic | remaining at 0.5 h [27]: 90.4% | remaining at 0.5 h [29]: 98.8% | Activity [37]: 90% | remaining at 0.5 h [30]: 2.2% | remaining at 0.5 h [31]: 92.8%

CCCCC(=O)N(Cc1ccc(-c2ccc(C(=O)O)cc2)cc1)c1cccc(F)c1
Activity (CHO [1]): Non-Toxic

CCCCC(=O)N(Cc1ccc(-c2ccc(O)cc2)cc1)c1cccc(C)c1
inhibition at 10 µM [2]: 24%

CCCCC(=O)N(Cc1ccc(-c2ccc(OCC(=O)O)cc2)cc1)c1cccc(C)c1
Activity (CHO [1]): Non-Toxic

CCCCC(=O)N(Cc1ccc(-c2ccc(OC)cc2)cc1)c1cccc(C)c1
Activity (CHO [1]): Non-Toxic

CCCCC(=O)N(Cc1ccc(-c2ccccc2CC(=O)O)cc1)c1ccccc1
inhibition at 10 µM [2]: 25%

CCCCC(=O)N(Cc1ccc(-c2ccc(OCCC(=O)O)cc2)cc1)c1cccc(F)c1
Activity (CHO [1]): Non-Toxic

CCCCC(=O)N(Cc1ccc(-c2ccc(C(=O)O)cc2)cc1)c1ccc(F)cc1
Activity (CHO [1]): Non-Toxic

CCCCC(=O)N(Cc1ccc(-c2ccc(OC)cc2)cc1)c1ccccc1
Activity (CHO [1]): Non-Toxic
